The values that follow come from ChEMBL document CHEMBL3507680, “University of Dundee, Gates Library screen for HepG2 cell viability”.

Structures are written as SMILES.

The series can be described thus: Human HepG2 cell viability assay in 384 well format. The series is classed as toxicity, cell-based. Further details: dose 125 nL, time 70.5 hour; cytotoxicity at 70.5 h: concentration not given beside the values. Particulars: HepG2 cells, read-out: Inhibition.
With `O=S(=O)(C1CC1)N1CC[C@]2(C[C@@H](OCC3CCOCC3)CO2)C1`, the cytotoxicity at 70.5 h was -9.4%.
`CN1C[C@@H]2COC[C@]2(C(=O)NCc2cccs2)C1`: the cytotoxicity at 70.5 h is 13.4%.
In the case of `Cc1ccsc1C(=O)N1CCCn2nnc(Cn3cccn3)c2C1` it was 9.85%.
In the case of `O=C(c1ccno1)N1CCC2(CC1)C(=O)Nc1ccccc12` it was -6.37%; in that of `c1cncc(COCC2CN(Cc3ccsc3)Cc3ccnn3C2)c1` (stereo not drawn), -4.42%.
In the case of `CCc1nn(-c2cc(Oc3cc(C)ccc3C)ncn2)c(N)c1C#N` it was -1.76%; in that of `O=C(Cn1nc(Br)nc1Br)N1CCCCC1`, -3.74%; in that of `CCCc1ccc(N2CCN(Cc3nc4ccccc4n3C)CC2)cc1`, 19.9%.
As for `Cc1cnc(N2C(=O)CSC2c2ccc(F)cc2)s1` (stereo not drawn), the cytotoxicity at 70.5 h is -5.25%.
In the case of `Cc1cnc(N2C(=O)CSC2c2ccc(N(C)C)cc2)s1` (stereo not drawn) it was -8.63%; in that of `COc1cc2ncn(CC(=O)NCCCN(C)C)c(=O)c2cc1OC`, -6.49%; in that of `CC(=O)c1cn(CCC(=O)N[C@H](C(=O)O)C(C)C)c2ccccc12`, -4%.
For `COc1cccc(-c2nc(C)c(C(=O)N[C@@H](C)C(=O)O)s2)c1`, the cytotoxicity at 70.5 h turned out to be 4.53%.
Then `COc1cc2nc(C)n(CC(=O)NCCCN(C)C)c(=O)c2cc1OC`, with 6.18%; and `O=C(NCCN1CCNCC1)c1c(O)c2ccccc2[nH]c1=O`, with 36.3%.
In the case of `CC(C)Cc1nc(OCC(=O)O)c(C#N)c2c1CCC2` it was 3.53%; in that of `CC(C)Cc1nc(OCC(N)=O)c(C#N)c2c1CCC2`, 14.5%; in that of `CN(C)CCNC(=O)CNC(=O)N1CCc2c([nH]c3ccc(Cl)cc23)C1`, 45.2%.
In the case of `CSCC[C@H](NC(=O)Cn1ccc2c(Cl)cccc21)C(=O)O` it was -11.9%; in that of `O=C1N(c2cccc(Cl)c2)Cc2nc(=O)n(Cc3cccc(F)c3)n21`, 0.196%.
For the compound `O=C(Cn1nc2c(cc1=O)CCCC2)N[C@@H](Cc1ccccc1)C(=O)O`, the cytotoxicity at 70.5 h is 6.84%.
In the case of `Cc1n[nH]c2c1C(c1ccc(O)c(Cl)c1)SCC(=O)N2` (stereo not drawn) it was 1.38%; in that of `O=C1CC(c2ccncc2)c2c(c(C(=O)O)cn2-c2ccc(F)cc2)N1` (stereo not drawn), -6.2%.
In the case of `CC1=Nc2c(c(=O)[nH]n2C2CCCC2)C(c2cccc(O)c2)S1` (stereo not drawn) it was 3.38%; in that of `COc1cccc2c1ccn2CCNC(=O)C(C)C`, -6.5%.
Then `O=C(CCc1nc2cccnc2[nH]1)NCc1ccc2c(c1)OCO2`, with -9.32%; and `O=C1CSC(c2cccs2)c2cnn(C3CCCC3)c2N1` (stereo not drawn), with -5.69%; and `Cn1cccc1CNC(=O)CCCc1nnc2ccccn12`, with -3.22%.
In the case of `COC(=O)CC(c1cnn(C)c1)c1oc(C)cc(=O)c1O` (stereo not drawn), the cytotoxicity at 70.5 h is 7.5%.
Then `CNC(=O)c1cc(S(=O)(=O)C(C)C)cs1`, with 1.49%; and `COc1ccc2c(c1)OC1(CCN(Cc3ccc(F)cc3)CC1)CC2=O`, with 1.23%; and `CC1(C)OCC(CNC(=O)c2cnn(-c3cc(Cl)ccc3Cl)c2N)O1` (stereo not drawn), with -5.2%.
Then `CC(=O)N1N=C(c2ccccc2)OC1C(=O)NCCc1cccc(Cl)c1` (stereo not drawn), with -19.7%; and `O=C(c1ccccn1)N1CCN(c2ccc(-c3cccnc3)nn2)CC1`, with -11.4%.
Then `CC(C)(C)n1cc(C(=O)NCCCn2ccnc2)c2cccnc21`, with -4.7%.
Regarding `Cc1ccc(C)c(C(NC(=O)C(C)(C)C)c2cccnc2)c1` (stereo not drawn), the cytotoxicity at 70.5 h is -4.24%.
In the case of `Cc1ccc(C)c(NC(=O)Nc2c[nH]c(=O)[nH]c2=O)c1`, the cytotoxicity at 70.5 h is -27.8%.
Turning to `O=C(Nc1ccc(F)cc1F)Nc1c[nH]c(=O)[nH]c1=O`, the cytotoxicity at 70.5 h is -14.5%.
In the case of `O=C(NCCN1CCOCC1)c1ccc(-n2ccc3ccccc32)s1` it was -8.71%; in that of `COc1ccc(C2OC(COc3ccccc3Br)=NN2C(C)=O)cc1` (stereo not drawn), -6.79%.
Then `COc1ccc2c(c1)CC(NC(=O)NCc1cccs1)CO2` (stereo not drawn), with -14.1%.
In the case of `COc1ccc(OC)c(CN2CCCCCC2c2cccs2)c1` (stereo not drawn) it was 31.6%; in that of `O=C(CSc1nc2c(cnn2CCO)c(=O)[nH]1)N1CCCCCC1`, 13.2%.
For `CN1CCc2cc(C(CNS(=O)(=O)c3cccs3)N3CCCC3)ccc21` (stereo not drawn), the cytotoxicity at 70.5 h was found to be 30.7%.
In the case of `CC(C)c1nn(CC(=O)N2CCCCC2)c(=O)c2c1cnn2C(C)(C)C` it was -10.1%; in that of `CCCc1cc(=O)[nH]c2nnc(SCC(=O)NCc3ccc(C)cc3)n12`, -6.16%; in that of `Cc1cccc(NC(=O)Cn2ncc(SCC(N)=O)c(Cl)c2=O)c1C`, -13.7%.
In the case of `O=C(c1cn(-c2cc(N3CCOCC3)ncn2)cn1)N1CCSCC1` it was -2%; in that of `O=C(c1cn(-c2cc(N3CCSCC3)ncn2)cn1)N1CCSCC1`, -1.64%.
Then `O=S(=O)(NCC1CCN(c2ccccn2)CC1)c1ccccc1F`, with 33.3%.
In the case of `O=C(NCC1CCN(Cc2ccsc2)CC1)NC1CC1`, the cytotoxicity at 70.5 h amounted to 1.34%.
In the case of `CN(C)C(CNS(=O)(=O)c1ccc(F)cc1F)c1cccn1C` (stereo not drawn) it was -13.1%; in that of `O=C(NCC(Cc1cccc(F)c1)N1CCCC1=O)c1cnccn1` (stereo not drawn), 0.835%; in that of `CS(=O)(=O)N1CCC(C(=O)N2CCC3(CC2)OCCCO3)CC1`, 54.6%.
As to `Cc1nc(NCc2nccn2C)cc(C2COCCN2)n1` (stereo not drawn), the cytotoxicity at 70.5 h is -11.1%.
Then `COc1cc([C@@H]2N[C@H](c3nccs3)Cc3ccsc32)cc(OC)c1OC`, with -0.55%.
On to `Cc1nc(C(Cc2ccsc2)NC(=O)CN2CCOCC2)sc1C` (stereo not drawn), for which the cytotoxicity at 70.5 h was -4.95%.
In the case of `Cc1nc(C(Cc2ccsc2)NC(=O)CCN2CCOCC2)sc1C` (stereo not drawn) it was -7.23%.
Then `COCC(=O)N1C[C@@H](c2cc(O)nc(C)n2)[C@H](c2ccccc2F)C1`, with 13%; and `Cc1cc2c(=O)n(CC(=O)N3CCn4cccc4C3C(C)C)cnc2s1` (stereo not drawn), with -6.1%.
In the case of `CCC1c2ccc(C)n2CCN1C(=O)Cn1cnc2sc(C)cc2c1=O` (stereo not drawn) it was -5.17%; in that of `CCC(CN1CCCC1)NC(=O)C1(c2ccc(F)cc2)CC1` (stereo not drawn), -7.41%; in that of `O=C(CCN1CCOCC1)NC(Cc1ccsc1)c1nccs1` (stereo not drawn), -4.65%.
For `Cc1cccn2c(NC(C)(C)C)c(C3CCN(C(=O)C4CC4)CC3)nc12`, the cytotoxicity at 70.5 h was -6.96%.
In the case of `Cc1csc2c(C3CCN(CCCOc4ccccc4)CC3)nc(C)n12` it was -0.478%; in that of `CC(C)C(=O)NCCc1cc2nc(-c3ccncc3)ccn2n1`, -6.71%; in that of `O=C(NCCc1cc2nc(-c3ccncc3)ccn2n1)C1CC1`, -6.41%.
Then `CC(C)NC(=O)[C@@H]1CN(C)C[C@]12COc1ccc(F)cc1C2=O`, with -5.13%; and `CN(C)c1cc(C2CCCN2)ccn1` (stereo not drawn), with 0.143%.
Then `Cc1noc(C)c1-c1cccc(C2CN(S(=O)(=O)N(C)C)CCO2)n1` (stereo not drawn), with -3.96%.
In the case of `COCCn1c(=O)n(C)c(=O)c2ccc(C3CCN(C(C)=O)CC3)nc21`, the cytotoxicity at 70.5 h was -1.06%.
Then `Cn1ccnc1C1(O)CCCN(Cc2ccncc2)CC1` (stereo not drawn), with -2.25%.
Then `Cc1ccccc1C(=O)N1CC[C@H](O)[C@@H](N2CCOCC2)CC1`, with -4.48%.
In the case of `O=C(O)CCCN1C[C@@H](c2ccccc2F)[C@@]2(CCCCC(=O)N2)C1` it was -2.59%; in that of `CCC(O)Cn1nc(-c2ccc(C(=O)O)cc2)cc1-c1cccc(F)c1` (stereo not drawn), 20.1%.
Turning to `Clc1ccc(OCCc2cc(C3CCN(c4ncccn4)C3)n[nH]2)cc1` (stereo not drawn), the cytotoxicity at 70.5 h is 0.0716%.
In the case of `NC(=O)CN1CCCC(c2ccnc(Nc3ncccn3)c2)C1` (stereo not drawn) it was 18.8%; in that of `COCCNc1ccc(CC2CCCN(C3CCOCC3)C2)nn1` (stereo not drawn), -4.94%.
In the case of `O=C(c1cccnc1)N1CCc2[nH]nc(Nc3ccccc3)c2C1` it was -6.1%; in that of `CC(=O)N1CCCC(c2ccnc(Nc3cnccn3)c2)C1` (stereo not drawn), -1.19%.
Then `CCCC(=O)N(C)Cc1nc(N2CCCC2)ncc1-c1ccncc1`, with -11%; and `Cc1ncc2c(n1)C1(CCN(C(=O)C3CC3)CC1)OCC2`, with -9.75%; and `Fc1ccccc1Cn1c(C2CCNCC2)cc2cccnc21`, with -4.77%.
As for `COc1cccc(Cn2c(C3CCNCC3)cc3cccnc32)c1`, the cytotoxicity at 70.5 h was -1.55%.
Regarding `COc1ccccc1C1(NCc2c(C)nc3c(C)cccn23)CCCC1`, the cytotoxicity at 70.5 h amounted to 24.9%.
With `CCS(=O)(=O)N1CCC2(CC1)COC(COc1cccnc1)C2` (stereo not drawn), the cytotoxicity at 70.5 h was -10.2%.
In the case of `CC(C)NC(=O)C1CCC2(CCN(Cc3cnn(C)c3)CC2)CO1` (stereo not drawn) it was -17%; in that of `CN(C)S(=O)(=O)N1CC[C@H]2OCC[C@@]2(COc2cccnc2)C1`, -12.5%; in that of `Cc1ncsc1CN1C[C@H](OCC(C)C)[C@H]2OCCC[C@H]21`, -0.162%.
In the case of `c1csc(CN2CCC3(CCCN(c4nncs4)C3)C2)n1` (stereo not drawn) it was -1.22%; in that of `CNC(=O)c1cc2c(nc1NCC(C)C)CCN(CCOC)CC2`, 4.78%.
Take `CNC(=O)c1cc2c(nc1NCC(C)C)CCN(C)CC2`: the cytotoxicity at 70.5 h came to 0.255%.
As to `CNC(=O)c1cc2c(nc1NCC(C)C)CCN(CC1CC1)CC2`, the cytotoxicity at 70.5 h is -9.46%.
In the case of `CCC(CN1CCCCC1)NC(=O)C1(c2cccc(F)c2)CC1` (stereo not drawn) it was -8.99%; in that of `Cc1ccccc1-n1nc(C)c(CN(C)C(C)Cc2ccccn2)c1C` (stereo not drawn), 0.642%; in that of `COc1ccc(C2(NCc3c(C)nc4c(C)cccn34)CCCC2)cc1`, -5.54%.
In the case of `CCC(CN1CCN(C)CC1)NC(=O)C1(c2cccc(F)c2)CC1` (stereo not drawn) it was -4.87%; in that of `COc1ccc(CCNC(=O)C2CCC(Cn3cnnn3)CC2)cc1` (stereo not drawn), -2.47%.
